Reference: ChEMBL document CHEMBL5212743, “Selectivity Literature for EUbOPEN Chemogenomics Library wave 3” (2023)

Assays:
[1] = molecular target: Cyclin-dependent kinase 11A (Homo sapiens, UniProt Q9UQ88); experiment: Selectivity interaction (ScanMAX (DiscoverX)) EUB0000005b CDK11A
[2] = molecular target: Bromodomain adjacent to zinc finger domain protein 2A (Homo sapiens) (UniProt Q9UIF9)
[3] = molecular target: Sodium channel protein type 2 subunit alpha (Homo sapiens, UniProt Q99250); experiment: Selectivity interaction (CEREP panel (receptors, ion chanels, radiometric assay)) EUB0000192d SCN2A
Sodium channel protein type 2 subunit alpha, sequence (Q99250 whole entry): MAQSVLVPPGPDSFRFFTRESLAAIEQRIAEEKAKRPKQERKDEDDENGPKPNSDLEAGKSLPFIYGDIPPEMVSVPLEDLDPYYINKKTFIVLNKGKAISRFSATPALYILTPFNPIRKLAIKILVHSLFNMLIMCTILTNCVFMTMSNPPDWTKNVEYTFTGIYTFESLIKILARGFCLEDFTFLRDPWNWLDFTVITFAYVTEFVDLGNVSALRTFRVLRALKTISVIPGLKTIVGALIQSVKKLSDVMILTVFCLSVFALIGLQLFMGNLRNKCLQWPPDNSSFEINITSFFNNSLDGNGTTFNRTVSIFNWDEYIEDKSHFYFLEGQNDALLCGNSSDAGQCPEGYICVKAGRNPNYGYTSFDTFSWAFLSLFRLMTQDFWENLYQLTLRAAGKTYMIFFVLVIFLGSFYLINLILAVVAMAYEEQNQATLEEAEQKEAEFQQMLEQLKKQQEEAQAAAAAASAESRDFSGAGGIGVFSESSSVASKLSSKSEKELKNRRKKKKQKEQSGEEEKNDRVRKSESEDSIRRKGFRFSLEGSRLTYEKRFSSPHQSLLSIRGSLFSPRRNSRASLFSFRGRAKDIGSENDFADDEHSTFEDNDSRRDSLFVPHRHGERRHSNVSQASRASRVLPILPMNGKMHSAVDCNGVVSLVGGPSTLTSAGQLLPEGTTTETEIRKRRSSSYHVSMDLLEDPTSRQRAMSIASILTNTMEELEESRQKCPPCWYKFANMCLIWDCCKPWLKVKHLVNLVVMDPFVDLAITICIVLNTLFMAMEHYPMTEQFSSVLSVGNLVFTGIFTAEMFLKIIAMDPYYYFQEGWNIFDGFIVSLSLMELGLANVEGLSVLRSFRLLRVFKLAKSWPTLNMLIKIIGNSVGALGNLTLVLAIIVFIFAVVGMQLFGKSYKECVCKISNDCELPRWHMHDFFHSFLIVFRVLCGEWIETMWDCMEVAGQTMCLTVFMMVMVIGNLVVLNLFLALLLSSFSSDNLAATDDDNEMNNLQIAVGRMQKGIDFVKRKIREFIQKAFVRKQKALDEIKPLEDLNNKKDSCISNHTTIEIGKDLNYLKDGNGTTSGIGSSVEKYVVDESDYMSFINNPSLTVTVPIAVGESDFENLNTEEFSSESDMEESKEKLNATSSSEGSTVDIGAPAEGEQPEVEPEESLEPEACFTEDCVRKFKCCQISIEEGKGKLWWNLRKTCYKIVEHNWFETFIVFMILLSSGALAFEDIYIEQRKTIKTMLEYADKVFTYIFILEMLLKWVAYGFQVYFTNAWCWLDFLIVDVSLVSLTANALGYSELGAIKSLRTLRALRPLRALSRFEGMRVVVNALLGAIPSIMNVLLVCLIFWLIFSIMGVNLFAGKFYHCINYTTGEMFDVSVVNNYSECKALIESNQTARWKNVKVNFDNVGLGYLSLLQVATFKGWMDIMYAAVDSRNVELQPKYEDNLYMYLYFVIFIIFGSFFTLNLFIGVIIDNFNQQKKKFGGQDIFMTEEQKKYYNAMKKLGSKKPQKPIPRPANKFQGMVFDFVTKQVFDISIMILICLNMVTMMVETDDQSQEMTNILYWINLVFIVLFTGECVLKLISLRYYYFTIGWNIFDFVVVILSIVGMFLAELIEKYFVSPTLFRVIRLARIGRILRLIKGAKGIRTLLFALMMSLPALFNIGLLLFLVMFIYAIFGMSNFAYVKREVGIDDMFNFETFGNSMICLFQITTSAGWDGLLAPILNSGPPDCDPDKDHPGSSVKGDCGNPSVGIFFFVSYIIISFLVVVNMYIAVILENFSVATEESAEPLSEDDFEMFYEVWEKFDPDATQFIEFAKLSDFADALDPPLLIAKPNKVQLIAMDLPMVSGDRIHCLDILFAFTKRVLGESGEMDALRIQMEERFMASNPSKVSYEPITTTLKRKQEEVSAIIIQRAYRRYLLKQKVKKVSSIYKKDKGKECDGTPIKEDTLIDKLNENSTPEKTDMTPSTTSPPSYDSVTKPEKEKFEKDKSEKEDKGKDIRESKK

[4] = molecular target: Chromatin remodeling regulator CECR2 (Homo sapiens, UniProt Q9BXF3)
Aurora kinase B = Aurora kinase B (Homo sapiens, UniProt Q96GD4); experiment: Selectivity interaction (KinomeScan (DiscoverX)) EUB0000718a AURKB; details: at 1 µM
Aurora kinase B, sequence (Q96GD4 whole entry, canonical isoform): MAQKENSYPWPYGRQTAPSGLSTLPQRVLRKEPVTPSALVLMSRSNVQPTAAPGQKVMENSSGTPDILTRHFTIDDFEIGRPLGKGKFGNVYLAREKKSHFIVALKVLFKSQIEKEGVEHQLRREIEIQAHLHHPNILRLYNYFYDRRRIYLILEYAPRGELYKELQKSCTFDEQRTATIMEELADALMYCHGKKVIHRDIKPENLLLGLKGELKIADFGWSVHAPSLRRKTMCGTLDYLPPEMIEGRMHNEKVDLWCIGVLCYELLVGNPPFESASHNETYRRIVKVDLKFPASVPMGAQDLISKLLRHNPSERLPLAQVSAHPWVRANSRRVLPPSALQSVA

[5] = molecular target: T1, Casein kinase I isoform gamma-3 (Homo sapiens, UniProt Q9Y6M4); experiment: Selectivity interaction (NanoBRET assay (HEK293T cells)) EUB0000718a CSNK1G3
[6] = molecular target: T2, Casein kinase I isoform epsilon (Homo sapiens, UniProt P49674); experiment: Selectivity interaction (KinomeScan (DiscoverX)) EUB0000718a CSNK1E; details: at 1 µM
Target sequence in this assay (P49674 whole entry, looked up, canonical isoform): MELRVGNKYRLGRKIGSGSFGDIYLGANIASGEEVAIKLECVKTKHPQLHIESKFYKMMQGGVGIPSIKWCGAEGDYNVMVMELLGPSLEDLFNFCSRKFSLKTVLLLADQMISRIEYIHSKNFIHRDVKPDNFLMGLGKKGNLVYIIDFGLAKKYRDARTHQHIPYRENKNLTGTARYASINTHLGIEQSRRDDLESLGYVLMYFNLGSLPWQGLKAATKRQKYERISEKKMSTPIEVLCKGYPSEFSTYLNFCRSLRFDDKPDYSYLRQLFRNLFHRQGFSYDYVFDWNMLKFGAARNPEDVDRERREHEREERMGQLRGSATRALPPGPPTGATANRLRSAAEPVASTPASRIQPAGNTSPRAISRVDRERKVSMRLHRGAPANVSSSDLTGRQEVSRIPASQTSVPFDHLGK

[7] = molecular target: T3, Mitogen-activated protein kinase 12 (Homo sapiens) (UniProt P53778); experiment: Selectivity interaction (KinomeScan (DiscoverX)) EUB0000718a MAPK12; details: at 1 µM
T3 sequence (whole entry): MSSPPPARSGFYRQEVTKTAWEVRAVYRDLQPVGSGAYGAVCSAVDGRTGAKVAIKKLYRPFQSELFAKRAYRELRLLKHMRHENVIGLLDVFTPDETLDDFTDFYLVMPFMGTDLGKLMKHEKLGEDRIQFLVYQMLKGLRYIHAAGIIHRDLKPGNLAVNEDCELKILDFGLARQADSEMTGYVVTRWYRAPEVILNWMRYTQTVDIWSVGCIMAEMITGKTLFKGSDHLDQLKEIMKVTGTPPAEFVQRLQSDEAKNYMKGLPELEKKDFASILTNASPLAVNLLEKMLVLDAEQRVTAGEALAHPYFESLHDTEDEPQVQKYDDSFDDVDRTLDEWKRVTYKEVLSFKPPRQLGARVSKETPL

[8] = molecular target: T1, Casein kinase I isoform gamma-3; experiment: Selectivity interaction (KinomeScan (DiscoverX)) EUB0000718a CSNK1G3; details: at 1 µM
[9] = molecular target: T4, Casein kinase I isoform delta (Homo sapiens, UniProt P48730); experiment: Selectivity interaction (NanoBRET assay (HEK293T cells)) EUB0000718a CSNK1D
[10] = molecular target: T4, Casein kinase I isoform delta; experiment: Selectivity interaction (KinomeScan (DiscoverX)) EUB0000718a CSNK1D; details: at 1 µM
[11] = molecular target: T2, Casein kinase I isoform epsilon; experiment: Selectivity interaction (NanoBRET assay (HEK293T cells)) EUB0000718a CSNK1E
Target sequence in this assay (P49674 whole entry, canonical isoform): as the sequence (P49674 whole entry, looked up, canonical isoform) above

[12] = molecular target: Bromodomain-containing protein 7 (Homo sapiens, UniProt Q9NPI1); experiment: Selectivity interaction (BROMOscan™ panel (DiscoverX)) EUB0000256b BRD7
[13] = molecular target: Bromodomain adjacent to zinc finger domain protein 2B (Homo sapiens, UniProt Q9UIF8); experiment: Selectivity interaction (BROMOscan™ panel (DiscoverX)) EUB0000256b BAZ2B
Bromodomain adjacent to zinc finger domain protein 2B, sequence (Q9UIF8 whole entry, the tested form may be a part): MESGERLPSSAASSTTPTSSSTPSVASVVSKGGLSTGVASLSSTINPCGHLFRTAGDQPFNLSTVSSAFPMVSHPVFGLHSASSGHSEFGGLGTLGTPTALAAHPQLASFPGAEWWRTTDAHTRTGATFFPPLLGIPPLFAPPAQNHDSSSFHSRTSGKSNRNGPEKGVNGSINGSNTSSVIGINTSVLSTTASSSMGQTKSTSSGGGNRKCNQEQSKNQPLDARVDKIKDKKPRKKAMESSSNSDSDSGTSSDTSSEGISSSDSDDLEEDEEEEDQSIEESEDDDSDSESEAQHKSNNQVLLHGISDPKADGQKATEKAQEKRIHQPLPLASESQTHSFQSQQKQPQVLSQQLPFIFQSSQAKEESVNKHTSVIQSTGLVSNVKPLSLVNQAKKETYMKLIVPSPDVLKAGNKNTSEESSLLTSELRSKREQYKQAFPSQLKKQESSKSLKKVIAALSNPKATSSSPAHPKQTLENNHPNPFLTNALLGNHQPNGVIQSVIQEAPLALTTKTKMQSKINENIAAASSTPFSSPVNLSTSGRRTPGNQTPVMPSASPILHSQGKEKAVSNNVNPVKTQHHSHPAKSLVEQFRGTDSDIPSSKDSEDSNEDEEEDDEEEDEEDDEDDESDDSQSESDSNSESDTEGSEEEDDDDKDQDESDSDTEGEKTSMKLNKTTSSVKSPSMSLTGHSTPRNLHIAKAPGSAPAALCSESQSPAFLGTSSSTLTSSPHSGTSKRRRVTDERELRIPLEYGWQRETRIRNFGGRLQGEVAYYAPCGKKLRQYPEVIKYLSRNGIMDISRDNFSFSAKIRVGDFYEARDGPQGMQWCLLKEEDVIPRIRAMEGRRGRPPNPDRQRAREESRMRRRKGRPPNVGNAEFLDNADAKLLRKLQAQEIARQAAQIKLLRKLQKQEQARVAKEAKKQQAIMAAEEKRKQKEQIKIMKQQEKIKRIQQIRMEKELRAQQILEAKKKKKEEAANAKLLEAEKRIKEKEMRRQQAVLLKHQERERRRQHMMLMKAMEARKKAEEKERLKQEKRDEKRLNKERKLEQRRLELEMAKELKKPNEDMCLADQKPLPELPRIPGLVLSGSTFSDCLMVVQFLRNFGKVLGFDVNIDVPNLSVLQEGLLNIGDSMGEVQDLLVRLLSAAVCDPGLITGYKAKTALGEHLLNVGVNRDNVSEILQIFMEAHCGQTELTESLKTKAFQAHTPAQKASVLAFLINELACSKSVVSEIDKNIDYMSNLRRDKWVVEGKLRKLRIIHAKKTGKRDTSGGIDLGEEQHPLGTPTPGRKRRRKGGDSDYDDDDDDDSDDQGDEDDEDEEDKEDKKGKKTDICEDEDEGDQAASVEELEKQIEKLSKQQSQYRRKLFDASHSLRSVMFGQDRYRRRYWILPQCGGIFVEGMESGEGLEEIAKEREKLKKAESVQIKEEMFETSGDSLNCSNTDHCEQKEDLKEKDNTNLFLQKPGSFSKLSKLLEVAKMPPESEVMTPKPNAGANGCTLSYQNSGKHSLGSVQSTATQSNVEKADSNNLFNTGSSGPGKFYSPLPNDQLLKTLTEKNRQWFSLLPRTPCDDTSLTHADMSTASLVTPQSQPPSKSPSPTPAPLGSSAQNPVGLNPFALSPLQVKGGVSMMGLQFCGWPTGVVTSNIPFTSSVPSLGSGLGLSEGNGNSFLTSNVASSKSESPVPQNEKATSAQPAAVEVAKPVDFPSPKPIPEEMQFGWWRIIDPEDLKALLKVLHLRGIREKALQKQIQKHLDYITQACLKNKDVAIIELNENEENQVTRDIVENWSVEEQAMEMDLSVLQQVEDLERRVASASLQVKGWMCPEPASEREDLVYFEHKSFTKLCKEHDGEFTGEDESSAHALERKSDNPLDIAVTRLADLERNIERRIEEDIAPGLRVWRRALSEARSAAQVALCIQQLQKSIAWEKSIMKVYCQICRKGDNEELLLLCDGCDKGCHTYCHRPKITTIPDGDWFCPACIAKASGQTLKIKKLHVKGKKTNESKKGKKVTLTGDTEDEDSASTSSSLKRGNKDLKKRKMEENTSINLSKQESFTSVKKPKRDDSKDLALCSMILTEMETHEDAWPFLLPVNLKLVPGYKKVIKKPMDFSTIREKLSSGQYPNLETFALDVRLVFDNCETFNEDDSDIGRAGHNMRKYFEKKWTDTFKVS

[14] = molecular target: Bromodomain-containing protein 9 (Homo sapiens, UniProt Q9H8M2); experiment: Selectivity interaction (BROMOscan™ panel (DiscoverX)) EUB0000256b BRD9
[15] = molecular target: Bromodomain-containing protein 1 (Homo sapiens, UniProt O95696); experiment: Selectivity interaction (BROMOscan™ panel (DiscoverX)) EUB0000256b BRD1
[16] = molecular target: Histone acetyltransferase KAT2B (Homo sapiens, UniProt Q92831); experiment: Selectivity interaction (TR-FRET assay) EUB0000256b KAT2B
Acetylcholinesterase = Acetylcholinesterase (Homo sapiens, UniProt P22303); experiment: Selectivity interaction (Internal GSK panel (receptors, ion channels and other enzymes )) EUB0000256b ACHE
Peregrin = Peregrin (Homo sapiens, UniProt P55201); experiment: Selectivity interaction (BROMOscan™ panel (DiscoverX)) EUB0000256b BRPF1

With `Cc1cn(-c2cc(NC(=O)c3ccc4c(c3)CN(c3cncnc3)C[C@@H]4C)cc(C(F)(F)F)c2)cn1` the Kd [1] was 370 nM.

`Cn1cc(CCn2cnc(-c3cnn(C)c3)c2-c2ccc(C#N)cc2)cn1` gave a dTm [2] of 5.2 K, an IC50 [3] of 6600 nM and a dTm [4] of 2 K.

`O=C(NCCN1CCOCC1)c1ccc2c(c1)C(=O)c1ccc(Nc3ccc(F)c(NC(=O)c4ccccc4)c3)cc1CC2` [FS-694] was tested, and the % of control (Aurora kinase B) was 22%, the IC50 [5] was > 20000 nM and the % of control [6] was 0.75%. For the same compound, the % of control [7] was 14%, the % of control [8] was 35% and the IC50 [9] was > 20000 nM. The % of control [10] was 5.8% and the IC50 [11] was > 20000 nM.

`CN1C[C@H](Nc2cnn(C)c(=O)c2Br)C[C@H](c2ccccc2)C1` gave a Ki [12] of 1500 nM, a Ki [13] of 840 nM and a Ki [14] of 1400 nM. The Ki [15] was 110 nM, the IC50 [16] was 40 nM and the XC50 (Acetylcholinesterase) was 3200 nM. It also gave a Ki (Peregrin) of 140 nM.
